Results published in patent publication US8980933B2, “Combretastatin analogs for use in the treatment of cancer” (Universitat Bayreuth, priority 2010, dated 2015).
“Also recorded” adds a separate entry of the source.

Assays:
[1] = system: vascular system of a fertilized chicken embryo; assay: CAM assay; assay type: in vivo; conditions: 10 nmol applied on the embryonal vessels; up to three days
Description: Compounds of the present invention were tested for anti-angiogenic and vasculature disrupting properties using the CAM assay. In this test the vascular system of a fertilized chicken embryo is used as a model (Wilting et al., Anat. Embryol. 1991, 183, 259-271).
Fertilized chicken eggs received from a nearby farm directly after laying have been incubated at a temperature of 36-38° C. and a relative humidity of 60%. During the growth the eggs have been held in an inclined position and turned from time to time in order to avoid an adherence to the shell. After four days each embryo was transferred into a cavity created by fixing a thin plastic foil on top of a cup and covered. This was done by opening the shell at the flat end where the air sac resides and letting the content slip out. There the growth continued for another 2-4 days until the first blood vessels became visible. Then 10 nmol of the substance to be tested (in 10 μL PBS with 1% DMF) have been applied directly on the embryonal vessels. As a reference PBS was used. Finally incubation continued for up to another three days (Dugan et al., Anat. Rec. 1991, 229, 125-128; Fisher, Tested studies for laboratory teaching 1993, 5, 105-115).

[2] = Solubility in water; assay type: physicochemical
[3] = system: 518A2 cells; assay: Mitochondrial membrane assay (JC-1), 518A2; assay type: cell-based, human; conditions: 5 μM, red/green fluorescence ratio relative to untreated controls (100%), mean ± SD
Description: Values represent means of four independent experiments±standard deviation.
Changes in mitochondrial membrane potential were determined by the Mitochondrial Membrane Detection Kit (Stratagene, La Jolla, Calif., USA) according to the manufacturer's procedure. 72 h following treatment with 5 μM of the test compounds, cell samples were centrifuged at 400 g for 5 min. The pellets were resuspended in 500 μL diluted JC-1 solution, incubated at 37° C. for 15 min (HL-60) and then centrifuged again for 5 min at 400 g. After washing, the pellets were resuspended in 100 μL PBS and transferred into the wells of a black 96-well plate. The red (λex=585 nm, λem=590 nm) and green (λex=510 nm, λem=527 nm) fluorescence intensities were measured and their ratio was calculated.

[4] = system: HL-60 cells; assay: TUNEL assay; assay type: cell-based, human; conditions: 10 μM; 16 h incubation
[5] = system: 1411HP germ cell tumor cell line; assay: SRB-cytotoxicity assay, 1411HP; assay type: cell-based, human; conditions: for effect on multi-drug resistance of 1411HP cells: compared with cisplatin
Description: The cytotoxic activity of 5b was established by standard colorimetric tests (SRB- and MTT-assays) against various tumor cell lines of different entities. For the SRB cytotoxicity assay, dose-response curves of the testicular germ cell tumor cell lines exposed to drug concentrations of 0.001-10 μM were established using the sulforhodamine-B (SRB) microcuiture colorimetric assay (Papazisis et al. Optimization of the sulforhodamine B colorimetric assay. J. Immunol. Methods 1997, 208, 151-158) and performed as described in: Müller et al. Failure of activation of caspase-9 induces a higher threshold for apoptosis and cisplatin resistance in testicular cancer. Cancer Res. 2003, 63, 513-521. Briefly, cells were seeded into 96-well plates on day 0, at cell densities previously determined to ensure exponential cell growth during the period of the experiment. On day 1, cells were treated with the drugs dissolved in medium to give the appropriate concentrations for indicated times and the percentage of surviving cells relative to untreated controls was determined on day 5.

[6] = system: 1411HP germ cell tumor xenografts; assay: Nude mouse xenograft model of resistant 1411HP; assay type: in vivo; conditions: for intra-tumoral hemorrhage (vascular disrupting effect): after 24 h
Description: In vivo antitumor activity and tolerability of compounds 5b and 6b of the invention were studied in a nude mouse xenograft model of the resistant germ cell tumor cell line 1411HP employing Athymic Nude-Fox n1 nu/nu mice (Harlan und Winkelmann, Borchen, Germany).
The tests were carried out as follows. The mice were kept under pathogen-free conditions, fed on an autoclaved standard diet and given free access to sterilized water. Each of five mice were administered a 150 μL phosphate buffered saline suspension of 10 million 1411HP cells into the left flank to generate subcutaneous xenograft tumors. After 4 weeks one group of two mice bearing 1411HP xenografts with a volume of ca. 1 cm^3 were injected i.p. with a single dose of 30 mg/kg body weight of 5b or 6b, respectively. Two mice in the second group with xenografts of a volume of ca. 2.5 cm^3 were injected i.p. with 20 mg/kg body weight of 5b on two consecutive days. Tumor volumes were calculated by caliper measurement using the formula a^2×b×0.5 with a being the short and b the long dimension. Body weight was assessed twice weekly and daily while under therapy.

[7] = system: A2780 ovarian carcinoma xenografts; assay: A2780 ovarian carcinoma xenograft model; assay type: in vivo, mouse
[8] = system: HUVEC cells; assay: Tube formation assay on matrigel; assay type: cell-based; conditions: 7.72 ng/mL
Description: 35 μL of media:matrigel (1:1) were added into wells of a 96-well plate and incubated at 37° C. for 30 minutes. A trypsinized HUVEC cell suspension was set to 800.000 cells/mL. In another 96-well plate 25 μL of the compound stock were serially diluted with 25 μL of media. 25 μL of compound dilutions and 25 μL of cell suspension were added to the matrigel coated 96-well plate and the cells were incubated over night. As a negative control, methanol was used as in place of the compound dilutions.

[9] = dual-dose i.p. 20 mg/kg on two consecutive days
[10] = single dose 30 mg/kg i.p., xenografts ca. 1 cm3

Row | SMILES | effect on embryonal blood vessels [1] | solubility [2] [µg/mL] | Intact mitochondria [%] in 518A2 cells after 72 h [3] [%] | apoptotic (TUNEL-positive) cells [4] | IC50 ([5]; Homo sapiens, 1411HP (chemoresistant), 96 h) [nM] | effect on multi-drug resistance of 1411HP cells [5] | tumor response [6, 9] | tolerability ([6]; single dose 30 mg/kg i.p.) | intra-tumoral hemorrhage (vascular disrupting effect) [6, 10] | tumor response [6, 10] | duration of tumor volume stabilization ([6]; single dose application) | tolerability of repeated applications ([6]; third course of double dose 20 mg/kg i.p.) | tumor response to repeated applications ([6]; three double doses of 20 mg/kg i.p. (further on days 16/17 and 35/36)) | vascular disrupting effect [7] | inhibition of tube formation [8] | vascular disrupting effect ([6]; 1411HP xenograft model)
1 | COc1ccc(-c2c(-c3cc(Cl)c(OC)c(OC)c3)ncn2C)cc1N [compound 5b, 1-methyl-5-(3-amino-4-methoxyphenyl)-4-(3-chloro-4,5-dimethoxyphenyl)-imidazole] | dramatic vessel shrinkage within 24 h after treatment and to a complete degradation of the vascular system within three days | > 10000 | 80 ± 9 | about 60% | 30 to 50 | breach of the multi-drug resistance of 1411HP cells | dramatic tumor regressions, leading even to a stabilization in one case | tolerated this treatment very well | strong intra-tumoral hemorrhage | transient swelling of the tumors, eventually followed by regression and slow regrowth | stabilize the tumor volume for about two weeks | well tolerated | regressions and prolonged periods of stabilization following each of the three applications | vascular disrupting activity | did not yield a correspondingly strong inhibition at this concentration | 
2 | COc1ccc(-c2c(-c3cc(Br)c(OC)c(OC)c3)ncn2C)cc1N [compound 6b, 1-methyl-5-(3-amino-4-methoxyphenyl)-4-(3-bromo-4,5-dimethoxyphenyl)-imidazole] | leaving regular vasculature in chicken embryos (CAM assay) alone | > 10000 | 80 ± 9 | about 60% |  | breach of the multi-drug resistance of 1411HP cells | high antitumor activity to a similar extent as compound 5b | tolerated this treatment very well | strong intra-tumoral hemorrhage | transient swelling of the tumors, eventually followed by regression and slow regrowth |  |  |  | vascular disrupting activity | pronounced inhibition of tube formation | vascular disrupting activity; also recorded: vascular disrupting in tumor xenografts
